{"source": "patent US11517588B2", "about": "“Nanoparticle, preparation process and uses thereof” (National Tsing Hua University, priority 2019, dated 2022)", "key": {"[1]": {"test_system": "orthotopic HCA-1 HCC tumors", "assay": "Tissue distribution of DNIC and NO release in tumors", "set-up": "species or system C3H mice", "details": "mouse, in vivo, iv", "experimental": "ID/g, injected dose per gram. *P=0.0159 compared to Free DNIC. […] Next, NBD-labeled DNIC was used to track the intracellular delivery of free DNIC and NanoNO, and the NO-specific fluorescence probe DAR-1 was used to assess the penetration of NO released from free DNIC and NanoNO in HCC. In FIG. 4F, microphotographs of HCC tumors show DNIC uptake (green) and NO release (red) four hours after intravenous administration of NBD-DNIC loaded in NanoNO or free-form NBD-DNIC (7.5 mg/kg) to mice. 4',6-diamidino-2-phenylindole (DAPI, a fluorescent dye capable of binding strongly to DNA), blue. Scale bar, 50 μm. The experiments were repeated twice independently. […] NO release (red) was detected using DAR-1 in tumors four hours after intravenous administration of NanoNO or free-form DNIC (10 mg/kg) in mice. The arrowheads indicate perivascular NO gradients. Scale bar, 20 μm. The release of NO was imaged and quantified with a Zeiss LSM 780 confocal microscope (n=7 section images from four mice). The experiments were repeated twice independently. The procedure of distribution of NO in the tumor area was as follows. […] Four hours after administration, mice were sacrificed. Tumor tissues were embedded in Tissue-Tek (OCT compound) and immediately frozen in liquid nitrogen. Tumor tissue was sectioned (10 μm thick) onto slides. […]"}, "PD-L1": {"test_system": "PD-L1", "assay": "PD-L1 mRNA and protein expression in HCC cells in vitro", "assay_type": "cell-based, murine and human", "details": "dose-dependent manner", "experimental": "The procedure of Western blot analysis was as follows. Cells or tissue were lysed in RIPA lysis buffer. Cell lysates were separated on a 10% acrylamide gel and transferred to a PVDF membrane. Membranes were blocked for 1 h in 5% skim milk and then incubated overnight with polyclonal antibodies against PD-L1 and R-actin (clone 122M4782, Cell Signaling, Danvers, Mass.).\nFIG. 6F is a data diagram showing reprogramming of tumor microenvironment by NanoNO. FIG. 6G is a Western blot staining diagram showing reprogramming of tumor microenvironment by NanoNO. PD-L1 mRNA and protein expression in HCA-1 cells was analysed by qRT-PCR (n=3 biologically independent samples) (FIG. 6F) and Western blot analysis (FIG. 6G) After treatment with free-form DNIC in vitro. The experiments were repeated twice independently."}, "HCA-1 cells [2]": {"test_system": "HCA-1 cells", "assay": "EMT phenotype under hypoxic conditions, qRT-PCR", "assay_type": "cell-based, murine", "details": "hypoxic conditions (1% oxygen), 24 h, dose-dependent manner", "experimental": "The mRNA level was determined by qRT-PCR 24 h after treatment with free DNIC at different doses (control and hypoxia, n=3; 0.5 and 1 μM DNIC, n=5; 5 μM DNIC, n=6 biologically independent samples)."}, "[3]": {"assay": "Cumulative release of NO, DAR-1 fluorescence probe", "assay_type": "physicochemical", "details": "PBS pH 7.4, 37° C.", "experimental": "The cumulative release of NO from NanoNO over time was assessed using an NO-specific 4,5-diamino-N,N,N′,N′-tetraethylrhodamine (DAR-1) fluorescence probe.\nThe release profile of NO from free DNIC or NanoNO was investigated at pH 7.4 at 37° C. Briefly, free DNIC and NanoNO were suspended with PBS buffer. DAR-1 at a final concentration of 20 μM was added to the solution and then incubated at 37° C. on a 200 rpm orbital shaker. At different time points, the solution was harvested, and the fluorescence intensity (excitation at 560 nm, emission at 595 nm) was measured using a microplate reader (Spark 10M, Tecan, Germany).\nFIG. 3 is a data diagram of the effect of NanoNO on the cumulative release of nitric oxide. NO release from free-form DNIC and NanoNO under physiological conditions (pH of 7.4). Free-form DNIC and NanoNO were incubated in PBS buffer at pH 7.4, and the release of NO was measured as the fluorescence intensity (excitation at 560 nm and emission at 595 nm) of the NO-specific probe DAR-1. The results are expressed as a fold change compared to time 0 (free DNIC, n=5; NanoNO; n=4 independent samples). *P=0.0159 compared to free DNIC. FL: fluorescence intensity."}, "HUVECs": {"test_system": "HUVECs", "assay": "Expression of pro-angiogenic and vessel stabilizing factors, RT-qPCR", "assay_type": "cell-based, human", "details": "DNIC 1 μM, 24 h", "from_the_text": "(§1) The procedure of reverse transcription quantitative real time PCR was as follows. Total RNA was extracted from HUVECs or flow-sorted tumor-associated macrophages using the RNeasy Mini Kit (Qiagen, Calif., USA). cDNAs were synthesized using the High-Capicity cDNA Reverse Transcription Kit (Applied Biosystems, Calif., USA). Primers specific for Arignase-1, CCL17, CCL22, IL10, MRC1, CXCL9, IL-1β, TNF-α, CXCL-11, NOS2, NOS3, Snail, Slug, Zeb1, Zeb2, Trim28, Fibronectin, Vimentin, E-cadherin, PD-L1, S1PR1, ANGPT1, PDGF-B, VEGFA, ANGPT2, EGF, IL-6, PPARγ, TGFβ, GAPDH and β-actin were used (Table 2), and relative gene expression was determined using Real-Time SYBR Green PCR Master Mix (Applied Biosystems, Calif., USA) on a QPCR System. The comparative threshold cycle method was used to calculate fold change in gene expression, which was normalized to β-actin.\nNO acts as a crucial modulator in regulating angiogenesis and maintaining the vasculature function in TME. […]\nFIG. 5A is a data diagram of normalized tumor blood vessels in HCC by low-dose NanoNO. Expression of the pro-angiogenic and vessel stabilizing factors in HUVECs 24 h after treatment with DNIC (1 μM) measured by RT-qPCR. The results are expressed as the fold change relative to the untreated control group (n=9 biologically independent samples). […]"}, "[4]": {"details": "pH 7.4", "description": "Free DNIC and NanoNO were suspended with PBS buffer or acetic buffer (pH 4.0 or 5.5) and then incubated at 37° C. in a 200 rpm Orbital Shaker. At different time points, the solution was harvested, dissolved in DMSO and analysed by a UV spectrophotometer at 360 nm.\nThe kinetic profile for the decomposition of DNIC and the concomitant release of NO from NanoNO were evaluated under physiological and acidic pH conditions at 37° C. […] Free-form DNIC and NanoNO were incubated in a PBS buffer or acetic buffer at a pH of 4.0-7.4, and DNIC destruction was measured using a UV spectrophotometer at 360 nm (n=5 independent samples). The results are expressed as percentage of the initial DNIC. **P=0.0094 and ***P=0.0004 compared to NanoNO at a pH of 7.4.\nFree-form DNIC and NanoNO were incubated in PBS containing 10% fetal bovine serum at 37° C. DNIC destruction was measured using a UV spectrophotometer at 360 nm. The results are expressed as the percentage of the initial DNIC (n=3 samples). All data are shown as the mean value± the s.e.m."}, "Macrophage": {"test_system": "Macrophage", "assay": "Macrophage polarization after treatment of DNIC in vitro (qPCR)", "assay_type": "cell-based, human", "from_the_text": "The murine hepatocellular carcinoma (HCC) cell line HCA-1 and the human HCC cell lines JHH-7, Hep3B and human lung fibroblasts (HLF) were provided by Dr. Dan Duda (Massachusetts General Hospital, Boston). The human HCC cell line Mahlavu was provided by Dr. Han-Chung Wu (Academia Sinica, Taiwan). The human monocyte cell line THP-1 (ATCC® TIB-202™) was purchased from ATCC. HUVECs (BCRC H-UV001) were obtained from the Bioresource Collection and Research Center, Food Industry Research and Development Institute (Hsinchu, Taiwan). Cell lines were authenticated and tested for mycoplasma. HCA-1 and Mahlavu cells were cultured in high-glucose Dulbecco's modified Eagle's medium (DMEM); JHH-7 and HLF cells were cultured in DMEM/F12 medium; Hep3B cells were cultured in Minimum Essential Medium Alpha (MEMα) (Sigma-Aldrich, St. Louis, Mo.); THP-1 cells were maintained in RPMI-1640 (Corning, N.Y.). All media were supplemented with 10% fetal bovine serum (FBS) and 1% antibiotics (penicillin and streptomycin, HyClone, Logan, Utah). The HUVECs were cultured in Medium 199 (Sigma-Aldrich, St. Louis, Mo.) containing 20% FBS, ECGS (30 μg/mL), heparin (25 U/mL) and L-glutamine (2 mM). THP-1 cells were differentiated into macrophages by 72 h incubation with 20 ng/mL phorbol 12-myristate 13-acetate (PMA, Sigma-Aldrich, St. Louis, Mo.).\nas §1"}, "HCA-1 cells [5]": {"test_system": "HCA-1 cells", "assay": "Invasion and wound healing assays", "assay_type": "cell-based, murine", "details": "72 h after treatment", "experimental": "The procedure of transwell invasion assay was as follows. Cell invasion was examined using a QCM ECMatrix 24-well Cell Invasion Assay (EMD Millipore, USA). HCA-1 cells were seeded in the top chamber without serum. DMEM-H containing 10% FBS was added to the lower chamber. Following incubation for 72 h, the cells on the lower surface were fixed with 4% paraformaldehyde (PFA, in PBS). The chambers were rinsed in PBS and stained with 1% crystal violet (in 90% ethanol) for 30 min. For each experimental condition, 10 image fields were photographed by microscopy (IX83, Olympus, Japan) and quantified.\nFIGS. 7A and 7B show free-form DNIC modulates the TME in metastatic lesions and suppresses metastatic progression of HCC. 7A-7B, Invasion (7A) and wound healing assays (7B) of HCA-1 cells were performed 72 h after treatment with free DNIC at different doses. The experiments were repeated twice independently."}, "[6]": {"details": "mouse, in vivo, iv", "description": "The pharmacokinetics and biodistribution of NanoNO in orthotopic murine HCC models generated using HCA-1 were evaluated.\nThe procedure of pharmacokinetic and tissue distribution study was as follows. C3H/HeNCrNarl male mice with orthotopic implants of HCA-1 cells were injected intravenously with free DNIC (10 mg/kg) or NanoNO (7.5 mg/kg). At different time points, 200 μL of blood was collected from the orbital sinus and mixed with 50 μL of 1000 U/mL heparin (Sigma, USA). For evaluation of tissue distribution, four hours after administration, the mice were sacrificed. The tissues were collected and homogenized in lysis buffer (10 mM Tris-HCl, 1% Triton X-100, 0.1% SDS, 0.1% SDC and 140 mM NaCl). The tissue lysates were kept on ice for 30 min and centrifuged at 25,001 rcf at 4° C. for 30 min, and the supernatants were collected. The DNIC signal was measured by electron paramagnetic resonance (EPR plus, Bruker, Germany). HSCH2CH2OH (1 mM) was added to the serum or tissue lysates to transform all the DNICs into the EPR-active form for analysis. The DNIC concentration was calculated according to a standard curve obtained by the amounts of DNIC or NanoNO.\nNon-compartmental analysis was employed for the pharmacokinetic parameter analysis. AUC, area under the curve; CL, clearance; h, hour; t1/2, half-life; Vss, steady state volume of distribution."}, "SP1": {"test_system": "SP1", "assay": "SP1 luciferase reporter", "assay_type": "cell-based, murine", "details": "free-form DNIC 0.5 μM, 24 h, HCA-1 cells", "experimental": "The procedure of DNIC triggered activation of SP1 in HCA-1 HCC cells was as follows. HCA-1 cells expressing SP1 reporter (Qiagen, Germany) were established by transfection using Lipofectamine® 2000 (Thermo Fisher Scientific, USA). The cells were then treated with free-form DNIC. After 24 h incubated, the cells were lysed and luciferase signal was measured by microplate reader (Spark 10M, Tecan, Germany).\nData are pooled from two independent experiments. […] Analysis was performed using two-tailed Mann-Whitney U test."}}, "data": [{"molecule": "O=[N][Fe]1([N]=O)[S](CCO)[Fe]([N]=O)([N]=O)[S]1CCO", "note": "[Free DNIC, Fe(μ-SCH2CH2OH)2(NO)4]", "values": [{"measurement": "accumulation of DNIC in HCC tumors", "setting": "[1]", "result": "poorly delivered and accumulated in the tumor"}, {"measurement": "PD-L1 expression in murine and human HCC cells in vitro", "setting": "PD-L1", "result": "significantly reduced PD-L1 expression"}, {"measurement": "EMT markers and E-cadherin expression", "setting": "HCA-1 cells [2]", "result": "prevented the increase in epithelial-mesenchymal transition (EMT) markers"}, {"measurement": "in vitro release of NO", "setting": "[3]", "result": "proceeded at a rapid rate during the first two hours"}, {"measurement": "expression of pro-angiogenic genes (VEGF, ANGPT2, and EGF)", "setting": "HUVECs", "result": "downregulated"}, {"measurement": "expression of vessel maturation-related genes (S1PR1 and ANGPT1)", "setting": "HUVECs", "result": "significantly upregulated"}, {"measurement": "half-life of DNIC (DNIC destruction)", "setting": "[4]", "result": "3.9 ± 1.5", "unit": "h"}, {"measurement": "macrophage polarization in vitro", "setting": "Macrophage", "result": "did not directly affect macrophage polarization"}, {"measurement": "Gene expression Arg-1 (M2 type)", "setting": "Macrophage; DNIC 0.5 μM", "result": "1.08 ± 0.26"}, {"measurement": "Gene expression CCL-17 (M2 type)", "setting": "Macrophage; DNIC 0.5 μM", "result": "1.06 ± 0.13"}, {"measurement": "Gene expression CCL-22 (M2 type)", "setting": "Macrophage; DNIC 0.5 μM", "result": "0.96 ± 0.11"}, {"measurement": "Gene expression CXCL-9 (M1 type)", "setting": "Macrophage; DNIC 0.5 μM", "result": "1.22 ± 0.17"}, {"measurement": "Gene expression CXCL-11 (M1 type)", "setting": "Macrophage; DNIC 0.5 μM", "result": "2.02 ± 0.79"}, {"measurement": "Gene expression IL-1b (M1 type)", "setting": "Macrophage; DNIC 0.5 μM", "result": "1.13 ± 0.07"}, {"measurement": "Gene expression IL-6 (M1 type)", "setting": "Macrophage; DNIC 0.5 μM", "result": "1.16 ± 0.03"}, {"measurement": "Gene expression MRC1 (M2 type)", "setting": "Macrophage; DNIC 0.5 μM", "result": "1.00 ± 0.17"}, {"measurement": "Gene expression PPARγ (M2 type)", "setting": "Macrophage; DNIC 0.5 μM", "result": "0.92 ± 0.05"}, {"measurement": "Gene expression TGF-β (M2 type)", "setting": "Macrophage; DNIC 0.5 μM", "result": "1.11 ± 0.06"}, {"measurement": "Gene expression TNF-α (M1 type)", "setting": "Macrophage; DNIC 0.5 μM", "result": "0.95 ± 0.08"}, {"measurement": "Gene expression iNOS (M1 type)", "setting": "Macrophage; DNIC 0.5 μM", "result": "1.10 ± 0.35"}, {"measurement": "Gene expression Arg-1 (M2 type)", "setting": "Macrophage; DNIC 1 μM", "result": "1.27 ± 0.28"}, {"measurement": "Gene expression CCL-17 (M2 type)", "setting": "Macrophage; DNIC 1 μM", "result": "1.19 ± 0.27"}, {"measurement": "Gene expression CCL-22 (M2 type)", "setting": "Macrophage; DNIC 1 μM", "result": "1.07 ± 0.22"}, {"measurement": "Gene expression CXCL-9 (M1 type)", "setting": "Macrophage; DNIC 1 μM", "result": "1.22 ± 0.53"}, {"measurement": "Gene expression CXCL-11 (M1 type)", "setting": "Macrophage; DNIC 1 μM", "result": "1.85 ± 0.72"}, {"measurement": "Gene expression IL-1b (M1 type)", "setting": "Macrophage; DNIC 1 μM", "result": "1.21 ± 0.04"}, {"measurement": "Gene expression IL-6 (M1 type)", "setting": "Macrophage; DNIC 1 μM", "result": "1.27 ± 0.08"}, {"measurement": "Gene expression IL-10 (M2 type)", "setting": "Macrophage; DNIC 1 μM", "result": "1.22 ± 0.14"}, {"measurement": "Gene expression MRC1 (M2 type)", "setting": "Macrophage; DNIC 1 μM", "result": "1.19 ± 0.16"}, {"measurement": "Gene expression PPARγ (M2 type)", "setting": "Macrophage; DNIC 1 μM", "result": "0.91 ± 0.13"}, {"measurement": "Gene expression TGF-β (M2 type)", "setting": "Macrophage; DNIC 1 μM", "result": "0.95 ± 0.03"}, {"measurement": "Gene expression TNF-α (M1 type)", "setting": "Macrophage; DNIC 1 μM", "result": "0.94 ± 0.11"}, {"measurement": "Gene expression iNOS (M1 type)", "setting": "Macrophage; DNIC 1 μM", "result": "0.93 ± 0.47"}, {"measurement": "migration and invasion of HCA-1 cells", "setting": "HCA-1 cells [5]", "result": "significantly inhibited the migration and invasion"}, {"measurement": "CL", "setting": "[6]", "result": 0.46, "unit": "mL/min/kg"}, {"measurement": "Vss", "setting": "[6]", "result": 0.0327, "unit": "L/kg"}, {"measurement": "t1/2", "setting": "[6]", "result": 1.27, "unit": "h"}, {"measurement": "SP-1 luciferase activity", "setting": "SP1", "result": "significantly decreased"}]}]}
